Patent publication US20140314890A1, “COMBINATION ANTI-CANCER THERAPY” (THE FLORIDA INTERNATIONAL UNIVERSITY BOARD OF TRUSTEES, priority 2011, published 2014)

Tests used:
Type in all cases: cell-based
[1] = tested on: LNCaP cells; assay: Cell death / cell viability by trypan blue dye exclusion test; conditions: for inhibition of cell growth (percentage of live cells, FIG. 1): LNCaP, C-PC 250 and 500 μg/mL or topotecan 1 μM and 10 μM individually, 16 hours
Protocol: (§1) The LNCaP cells were grown as a complete monolayer in RPMI-1640 growth medium supplemented with 10% fetal bovine serum, 10,000 U/mL of penicillin, 10,000 μg/mL of streptomycin, 1% (+)-L-glutamine, and 1% amphotericin-B. The cells were grown at 37° C. under a humidified air/CO2 (19:1) atmosphere. All experiments were conducted using cells in logarithmic phase. In each well of a six-well plate, approximately 1×10^6 cells per well were grown for 24 hours.
(§2) To determine the cell viability, monolayer culture of LNCaP cells were treated with different concentrations of the C-PC (250 and 500 μg mL−1) and topotecan (1 μM and 10 μM) individually and in combination of C-PC (250 and 500 μg mL−1) with topotecan at 1 μM for 16 hours. After the incubation period, cell death was determined by using trypan blue dye exclusion test. To determine the levels of ROS generation, the cells cultured in 6-well plate were incubated with different concentrations of C-PC and topotecan as described above for 16 hours. At the end of incubation period, levels of ROS generated were measured using the NBT reduction assay.

[2] = tested on: LNCaP cells; assay: ROS generation by NBT reduction assay; conditions: 16 hours
Protocol: as §1, §2

[3] = tested on: caspase-3; assay: Caspase-3 activity, colorimetric assay of cell lysates (Ac-DEVD-pNA); conditions: LNCaP; C-PC 250 μg/mL, topotecan 10 μM; 16 hours
Protocol: (§3) LNCaP cells were treated with different concentrations of the C-PC (250 μg mL−1) and topotecan (10 μM) for 16 hours. After the incubation time, cells were harvested, washed and resuspended in cell lysis buffer and kept on ice for 10 minutes. The cell lysate was centrifuged at 5000 rpm for 5 minutes, the supernatant was assayed for protein concentration and further diluted with the lysis buffer to adjust the protein concentration. Equal amounts of protein from each sample was added to 96-well plates and mixed with the 2×reaction buffer [100 mM HEPES (pH 7.4), 200 mM NaCl, 20 mM dithiotheritol, 2 mM EDTA, and 0.2% chaps] and 2 mM of the respective substrates acetyl-Leu-Glu-His-Asp-p-nitroaniline (Ac-LEHD-pNA) and acetyl-Asp-Glu-Val-Asp-p-nitroaniline (Ac-DEVD-pNA). For measuring the specific activity of caspase-9 and caspase-3, the respective inhibitors Ac-LEHD-CHO and Ac-DEVD-CHO were used. Release of the cleaved p-nitroanilide from the tetrapeptide substrates was measured using the 96-well microplate reader at 405 nm.

[4] = tested on: caspase-9; assay: Caspase-9 activity, colorimetric assay of cell lysates (Ac-LEHD-pNA); conditions: LNCaP; C-PC 250 μg/mL, topotecan 10 μM; 16 hours
Protocol: as §3

Q: Which results are given for phycocyanin?
A: inhibition of cell growth (percentage of live cells, FIG. 1) [1]: significant inhibition of cell growth; antiproliferative activity ([1]; prostate cancer cell line LNCaP, preliminary work): had antiproliferative activity; rate of ROS generation (FIG. 2) [2]: significant increase in the rate of ROS generation; caspase-3 activity compared to untreated control cells (FIG. 4) [3]: increased; caspase-9 activity compared to untreated control cells (FIG. 4) [4]: increased

Q: How did the “inhibition of cell growth (percentage of live cells, FIG. 1)” value [1] turn out when `CC[C@@]1(O)C(=O)OCc2c1cc1n(c2=O)Cc2cc3c(CN(C)C)c(O)ccc3nc2-1` [topotecan, reference compound] was run?
A: significant inhibition of cell growth

Q: What about the “rate of ROS generation (FIG. 2)” value [2] of the same molecule?
A: significant increase in the rate of ROS generation

Q: And the “caspase-3 activity compared to untreated control cells (FIG. 4)” value [3]?
A: increased

Q: What about the “caspase-9 activity compared to untreated control cells (FIG. 4)” value [4] of the same molecule?
A: increased
